Test results reported in patent publication US20230089715A1, “MASITINIB FOR THE TREATMENT OF A MULTIPLE SCLEROSIS PATIENT SUBPOPULATION” (AB SCIENCE, priority 2020, published 2023).

Tested on: patients with progressive multiple sclerosis (PPMS or non-active SPMS)
Experiment: Study AB07002: randomized, double-blind, placebo-controlled phase 3 study, overall EDSS change from baseline
Format: in vivo, human
Set-up: key to LSM EDSS, MAS (overall EDSS change from baseline): LS mean EDSS change from baseline; positive value = worsening
Conditions: 4.5 mg/kg/day oral, 96 weeks
Protocol: An international, multicenter, randomized, double-blind, placebo-controlled phase 3 study was conducted with the objective to evaluate oral masitinib at a dose of 4.5 mg/kg/day as a treatment for progressive multiple sclerosis (progressive MS), as defined hereinabove. […] Eligible patients were treated for 96 weeks with masitinib at a dose of 4.5 mg/kg/day (mg per kilo body weight per day) or with placebo. Primary endpoint was overall EDSS change from baseline using a repeated analysis of covariance model (i.e., ANCOVA GEE model on all measurements from week 12 (W12) to week 96 (W96)). Results are expressed as least-squares means difference, illustrating the progression of EDSS score, that is to say the change over time in the EDSS score or in other words the difference between the EDSS score at baseline and the EDSS score after treatment with masitinib or with placebo (a positive value indicates a worsening of the patient). Treatment-effect is reported as between-group difference (ΔLSM, negative value indicates a beneficial effect of treatment with masitinib as compared to treatment with placebo). […] Patients suffering from a disease other than MS that would better explain their neurological clinical signs and symptoms and/or lesions observed with magnetic resonance imaging (“MRI lesions”) were excluded. Subpopulation analyses of primary endpoint data from study AB07002 assessed the impact of the clinical markers ‘time from onset’ with respect to baseline (i.e., date of treatment initiation), derived from the estimated date of first clinical MS symptom(s), or ‘time from diagnosis’ with respect to baseline (i.e., date of treatment initiation), on masitinib efficacy in patients with progressive MS (see Example 3). ‘Time from onset’ is derived from the date (year/month/day, year/month, or year) of first clinical symptom(s) with duration calculated from date of treatment initiation. The date of first symptom(s) is typically determined retrospectively from medical history, for example from medical records and patient/caregiver historical recall of MS related symptoms following a clinically definite diagnosis. Imputation of missing data can be handled using various methods, one example of which is the following approach: if the information regarding day is missing, the day is considered to be the last day of the month; if the day and month are missing, the day is considered to be the last day of June. ‘Time from diagnosis’ of progressive MS, is ideally based on a clinically definite diagnosis of progressive MS as determined by a MS specialist neurologist. In practice it is derived from the date (year/month/day, year/month, or year) of first clinically definite diagnosis of progressive MS, i.e., PPMS or non-active SPMS, with duration calculated from date of treatment initiation. At the time of MS diagnosis, a provisional disease course should be specified (relapsing-remitting, primary progressive, or secondary progressive) and whether the course is active or not (non-active) and progressive or not based on the previous year's history. The phenotype should be periodically re-evaluated based on accumulated information. Comparison of subpopulation analyses with respect to the corresponding full analysis dataset (see Table 4) is reported as relative difference in ΔEDSS (R %). A large positive R % value indicates a subpopulation that receives greater benefit from masitinib treatment, while a negative R % value indicates a diminished treatment-effect or lack of discernable treatment-effect in the subpopulation.

[1] = PPMS, T(diag) > 2 Y and T(onset) > 5 Y
[2] = PPMS, complement T(diag) ≤ 2 Y or T(onset) ≤ 5 Y
[3] = Progressive MS, T(diag) > 2 Y and T(onset) > 5 Y

## Cc1ccc(NC(=O)c2ccc(CN3CCN(C)CC3)cc2)cc1Nc1nc(-c2cccnc2)cs1 [masitinib, 4-(4-methylpiperazin-1-ylmethyl)-N-[4-methyl-3-(4-pyridin-3ylthiazol-2-ylamino)phenyl]benzamide]
PPMS, T(diag) > 1 Y
  LSM EDSS, MAS (overall EDSS change from baseline): −0.004
  R % (relative difference in ΔEDSS with respect to full analysis dataset): 31%
  ΔEDSS (between group difference, treatment-effect vs placebo): −0.174
[1]
  LSM EDSS, MAS (overall EDSS change from baseline): −0.076
  ΔEDSS (between group difference, treatment-effect vs placebo): −0.283
PPMS, T(diag) > 2 Y and T(onset) > 5 Y, 4.5 mg/kg/day
  R % (relative difference in ΔEDSS with respect to full analysis dataset): 113%
PPMS, T(diag) > 2 Y
  LSM EDSS, MAS (overall EDSS change from baseline): −0.070
  ΔEDSS (between group difference, treatment-effect vs placebo): −0.246
PPMS, T(diag) > 2 Y, 4.5 mg/kg/day
  R % (relative difference in ΔEDSS with respect to full analysis dataset): 85%
PPMS, T(diag) > 3 Y
  LSM EDSS, MAS (overall EDSS change from baseline): −0.099
  ΔEDSS (between group difference, treatment-effect vs placebo): −0.211
PPMS, T(diag) > 3 Y, 4.5 mg/kg/day
  R % (relative difference in ΔEDSS with respect to full analysis dataset): 59%
PPMS, T(diag) > 4 Y
  LSM EDSS, MAS (overall EDSS change from baseline): 0.097
  R % (relative difference in ΔEDSS with respect to full analysis dataset): 25%
  ΔEDSS (between group difference, treatment-effect vs placebo): −0.166
PPMS, T(diag) ≤ 1 Y
  LSM EDSS, MAS (overall EDSS change from baseline): −0.097
  ΔEDSS (between group difference, treatment-effect vs placebo): 0.137
PPMS, T(diag) ≤ 2 Y
  LSM EDSS, MAS (overall EDSS change from baseline): 0.190
PPMS, T(diag) ≤ 3 Y
  LSM EDSS, MAS (overall EDSS change from baseline): 0.070
  ΔEDSS (between group difference, treatment-effect vs placebo): 0.009
PPMS, T(diag) ≤ 4 Y
  LSM EDSS, MAS (overall EDSS change from baseline): 0.099
  ΔEDSS (between group difference, treatment-effect vs placebo): −0.089
PPMS, T(onset) > 1 Y
  LSM EDSS, MAS (overall EDSS change from baseline): 0.040
  R % (relative difference in ΔEDSS with respect to full analysis dataset): −6%
  ΔEDSS (between group difference, treatment-effect vs placebo): −0.125
PPMS, T(onset) > 2 Y
  LSM EDSS, MAS (overall EDSS change from baseline): 0.026
  R % (relative difference in ΔEDSS with respect to full analysis dataset): 5%
  ΔEDSS (between group difference, treatment-effect vs placebo): −0.139
PPMS, T(onset) > 3 Y
  LSM EDSS, MAS (overall EDSS change from baseline): 0.021
  R % (relative difference in ΔEDSS with respect to full analysis dataset): 31%
  ΔEDSS (between group difference, treatment-effect vs placebo): −0.174
PPMS, T(onset) > 4 Y
  LSM EDSS, MAS (overall EDSS change from baseline): 0.028
  R % (relative difference in ΔEDSS with respect to full analysis dataset): 22%
  ΔEDSS (between group difference, treatment-effect vs placebo): −0.162
PPMS, T(onset) > 5 Y
  LSM EDSS, MAS (overall EDSS change from baseline): 0.029
  ΔEDSS (between group difference, treatment-effect vs placebo): −0.214
PPMS, T(onset) > 5 Y, 4.5 mg/kg/day
  R % (relative difference in ΔEDSS with respect to full analysis dataset): 61%
PPMS, T(onset) ≤ 3 Y
  LSM EDSS, MAS (overall EDSS change from baseline): 0.111
  ΔEDSS (between group difference, treatment-effect vs placebo): 0.349
PPMS, T(onset) ≤ 4 Y
  LSM EDSS, MAS (overall EDSS change from baseline): −0.082
  ΔEDSS (between group difference, treatment-effect vs placebo): 0.051
PPMS, T(onset) ≤ 5 Y
  LSM EDSS, MAS (overall EDSS change from baseline): 0.314
[2]
  LSM EDSS, MAS (overall EDSS change from baseline): 0.180
  ΔEDSS (between group difference, treatment-effect vs placebo): 0.118
PPMS, full analysis dataset
  LSM EDSS, MAS (overall EDSS change from baseline): 0.030
PPMS, full analysis dataset, 4.5 mg/kg/day
  ΔEDSS (between group difference, treatment-effect vs placebo): −0.133
PPMS, full analysis dataset, listed as Masitinib, 4.5 mg/kg/day
  ΔEDSS (between group difference, treatment-effect vs placebo): non-significant trend
Progressive MS, T(diag) > 1 Y
  LSM EDSS, MAS (overall EDSS change from baseline): −0.012
  R % (relative difference in ΔEDSS with respect to full analysis dataset): 10%
  ΔEDSS (between group difference, treatment-effect vs placebo): −0.109
[3]
  LSM EDSS, MAS (overall EDSS change from baseline): −0.057
  ΔEDSS (between group difference, treatment-effect vs placebo): −0.162
Progressive MS, T(diag) > 2 Y and T(onset) > 5 Y, 4.5 mg/kg/day
  R % (relative difference in ΔEDSS with respect to full analysis dataset): 64%
Progressive MS, T(diag) > 2 Y
  LSM EDSS, MAS (overall EDSS change from baseline): −0.029
  ΔEDSS (between group difference, treatment-effect vs placebo): −0.133
Progressive MS, T(diag) > 2 Y, 4.5 mg/kg/day
  R % (relative difference in ΔEDSS with respect to full analysis dataset): 34%
Progressive MS, T(diag) > 3 Y
  LSM EDSS, MAS (overall EDSS change from baseline): −0.068
  R % (relative difference in ΔEDSS with respect to full analysis dataset): 39%
  ΔEDSS (between group difference, treatment-effect vs placebo): −0.138
Progressive MS, T(diag) > 4 Y
  LSM EDSS, MAS (overall EDSS change from baseline): −0.053
  R % (relative difference in ΔEDSS with respect to full analysis dataset): 48%
  ΔEDSS (between group difference, treatment-effect vs placebo): −0.147
Progressive MS, T(diag) ≤ 1 Y
  LSM EDSS, MAS (overall EDSS change from baseline): −0.099
